Source: ChEMBL document CHEMBL1125918, “Synthesis of 3-carbamoylecgonine methyl ester analogues as inhibitors of cocaine binding and dopamine uptake” (J Med Chem, 1991)

Species: Rattus norvegicus
Assay: Compound was evaluated in vitro, for the ability to inhibit [3H]- dopamine uptake into synaptosomes (prepared from rat striatal tissues).
Type: functional
Details: Brain

How did the IC50 turn out when COC(=O)C1C2CC[C@H](C[C@@H]1OC(=O)Nc1cccc(N)c1)N2C (stereo partly specified) was run?
Its IC50 is 23.1 µM.

Which IC50 does the source give for COC(=O)C1C2CC[C@H](C[C@@H]1OC(=O)Nc1cccc([N+](=O)[O-])c1)N2C (stereo partly specified) here?
The IC50 was 0.178 µM.

For COC(=O)[C@H]1[C@@H](OC(=O)c2ccccc2)C[C@@H]2CC[C@H]1N2C [COCAINE], which IC50 is on record?
Its IC50 is 0.213 µM.

With COC(=O)C1C2CC[C@H](C[C@@H]1OC(=O)Nc1ccc(N)cc1)N2C (stereo partly specified) as the compound, how does the IC50 read?
The IC50 was over 100 µM.

How did the IC50 turn out when COC(=O)C1C2CC[C@H](C[C@@H]1OC(=O)Nc1ccc([N+](=O)[O-])cc1)N2C (stereo partly specified) was run?
The IC50 was 5.7 µM.

With COC(=O)C1C2CC[C@H](C[C@@H]1OC(=O)Nc1ccccc1)N2C (stereo partly specified) as the compound, how does the IC50 read?
The IC50 was 52.6 µM.
